Experimental data published in patent US10696693B2, “Fused imidazole derivatives as TGF-beta inhibitors” (Rigel Pharmaceuticals, Inc., priority 2014, dated 2020).
Where two headings read alike, the source gives them in different places.

Tests used:
GDF8 = assay: AlphaScreen SureFire p-SMAD3 (Ser423/425) assay, GDF8-stimulated cells; type: cell-based; details: Mus musculus
In short: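 Lysate (5 μL) went into 384-well shallow plates with 5 μL of Reaction Buffer, Activation Buffer and AlphaScreen Acceptor bead mix. Plates were sealed, kept dark and shaken for 2 hours at room temperature. Donor beads in dilution buffer (2 μL) were added for another 1½ hours, and p-SMAD3 signal was read on a Synergy-4 or Enspire reader.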

TGF-β = assay: AlphaScreen SureFire p-SMAD3 (Ser423/425) assay, TGF-β-stimulated cells; type: cell-based; details: Mus musculus
In short: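 The p-SMAD-3 (Ser423/425) SureFire assay measured phosphorylation of endogenous SMAD-3 in cell lysates. Cells were plated overnight in collagen-coated plates, exposed to three-fold serially diluted compounds for about 10 minutes, then stimulated with TGFβ. Lysates (5 μL) received acceptor bead mix for 2 hours, then donor beads for 1½ hours before AlphaScreen reading.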

[1] = MPC-11, p-SMAD3 (Ser423/425) AlphaScreen in cell lysate, MPC11, GDF8 stimulation, read-out: GDF8: inhibition of GDF8 signaling, GDF pSMAD (MPC11)
[2] = p-SMAD3 (Ser423/425) AlphaScreen in cell lysate, MPC-11, TGF-β stimulation, read-out: TGF-β: inhibition of TGF-β signaling, TGF-β pSMAD (MPC-11)
[3] = MPC-11, read-out: GDF8: inhibition of GDF8 signaling, GDF pSMAD (MPC11), p-SMAD3 (Ser423/425) AlphaScreen in cell lysate, GDF8 stimulation
[4] = MPC-11, read-out: TGF-β: inhibition of TGF-β signaling, TGF-β pSMAD (MPC-11), p-SMAD3 (Ser423/425) AlphaScreen in cell lysate, TGF-β stimulation

SMILES	IC50 (GDF8; [1]) [nM]	IC50 (TGF-β; [2]) [nM]	IC50 (GDF8; [3]) [nM]	IC50 (TGF-β; [4]) [nM]
Cc1cc(-c2nc3n(c2-c2ccc4ncsc4c2)CCC3)cc(C)c1F [Compound 277, 6-(2-(4-fluoro-3,5-dimethylphenyl)-6,7-dihydro-5H-pyrrolo[1,2-a]imidazol-3-yl)benzo[d]thiazole]	> 1000	> 1000	–	–
Cc1cc(-c2nc3n(c2-c2ccc4nccnc4c2)CCC3)c(F)cc1Cl [Compound 254, 6-(2-(4-chloro-2-fluoro-5-methylpheny)-6,7-dihydro-5H-pyrrolo[1,2-a]imidazol-3-yl)quinoxaline]	> 1000	> 1000	–	–
Fc1cc(Cl)c(-c2nc3n(c2-c2ccc4[nH]ncc4c2)CCC3)cc1F [Compound 288, 5-(2-(2-chloro-4,5-difluorophenyl)-6,7-dihydro-5H-pyrrolo[1,2-a]imidazol-3-yl)-1H-indazole]	–	–	100 to 1000	> 1000
Cc1cc(F)ccc1-c1nc2n(c1-c1ccc3ncccc3c1)CCC2 [Compound 295, 6-(2-(4-fluoro-2-methylphenyl)-6,7-dihydro-5H-pyrrolo[1,2-a]imidazol-3-yl)quinoline]	> 1000	> 1000	–	–
Cc1cc(-c2nc3n(c2-c2ccc4ncsc4c2)CCC3)cc(Cl)c1F [Compound 273, 6-(2-(3-chloro-4-fluoro-5-methylpheny)-6,7-dihydro-5H-pyrrolo[1,2-a]imidazol-3-yl)benzo[d]thiazole]	> 1000	> 1000	–	–
COc1ccc(-c2nc3n(c2-c2ccc4nccnc4c2)CCC3)cc1 [Compound 351, 6-(2-(4-methoxyphenyl)-6,7-dihydro-5H-pyrrolo[1,2-a]imidazol-3-yl)quinoxaline]	–	–	> 1000	> 1000
Cc1cc(F)c(-c2nc3n(c2-c2ccc4ncnn4c2)CCC3)cc1F [Compound 47, 6-(2-(2,5-difluoro-4-methylphenyl)-6,7-dihydro-5H-pyrrolo[1,2-a]imidazol-3-yl)-[1,2,4]triazolo[1,5-a]pyridine]	> 1000	> 1000	–	–
O=C(O)C1CCC2(CC1)Cc1nc(-c3ccc(F)cc3)c(-c3ccc4nccnc4c3)n1C2 (stereo not shown) [Compound 334, 2′-(4-fluorophenyl)-3′-(quinoxalin-6-yl)-5′H,7′H-spiro[cyclohexane-1,6′-pyrrolo[1,2-a]imidazole]-4-carboxylic acid]	–	–	> 1000	> 1000
Fc1ccc(-c2nc3n(c2-c2ccc4ncccc4c2)CC2(CCCC2)C3)cc1 [Compound 327, 2′-(4-fluorophenyl)-3′-(quinolin-6-yl)-5′H,7′H-spiro[cyclopentane-1,6′-pyrrolo[1,2-a]imidazole]]	–	–	> 1000	> 1000
O=S(=O)(Nc1cccc(-c2nc3n(c2-c2ccc4nccn4c2)CCC3)c1)c1ccccc1F [Compound 70, 2-fluoro-N-(3-(3-(imidazo[1,2-a]pyridin-6-yl)-6,7-dihydro-5H-pyrrolo[1,2-a]imidazol-2-yl)phenyl)benzenesulfonamide]	> 1000	> 1000	–	–
COc1c(C)cc(-c2nc3n(c2-c2ccc4ncsc4c2)CCC3)cc1C [Compound 257, 6-(2-(4-methoxy-3,5-dimethylphenyl)-6,7-dihydro-5H-pyrrolo[1,2-a]imidazol-3-yl)benzo[d]thiazole]	> 1000	> 1000	–	–
Fc1cc(F)c(F)c(-c2nc3n(c2-c2ccc4ncccc4c2)CCCN3)c1 [Compound 165, 6-(2-(2,3,5-trifluorophenyl)-5,6,7,8-tetrahydroimidazo[1,2-a]pyrimidin-3-yl)quinoline]	> 1000	100 to 1000	–	–
Fc1cc(-c2nc3n(c2-c2ccc4ncsc4c2)CCC3)cc(F)c1F [Compound 229, 6-(2-(3,4,5-trifluorophenyl)-6,7-dihydro-5H-pyrrolo[1,2-a]imidazol-3-yl)benzo[d]thiazole]	–	–	100 to 1000	> 1000

Continued, in another order:

IC50 (GDF8; [1]) [nM]	IC50 (TGF-β; [2]) [nM]	SMILES	IC50 (GDF8; [3]) [nM]	IC50 (TGF-β; [4]) [nM]
50 to 100	100 to 1000	Cc1cc(-c2nc3n(c2-c2ccc4ncnn4c2)CCC3)c(Cl)cc1F [Compound 69, 6-(2-(2-chloro-4-fluoro-5-methylphenyl)-6,7-dihydro-5H-pyrrolo[1,2-a]imidazol-3-yl)-[1,2,4]triazolo[1,5-a]pyridine]	–	–
< 50	100 to 1000	Fc1ccc(-c2nc3n(c2-c2ccc4[nH]ncc4c2)CCC3)c(F)c1 [Compound 201, 5-(2-(2,4-difluorophenyl)-6,7-dihydro-5H-pyrrolo[1,2-a]imidazol-3-yl)-1H-indazole]	–	–
100 to 1000	100 to 1000	Cc1ccc(Cl)cc1-c1nc2n(c1-c1ccc3ncnn3c1)CCC2 [Compound 90, 6-(2-(5-chloro-2-methyl)-6,7-dihydro-5H-pyrrolo[1,2-a]imidazol-3-yl)-[1,2,4]triaolo[1,5-a]pyridine]	–	–
< 50	50 to 100	Nc1ncnc2ccc(-c3c(-c4cc(F)c(F)cc4F)nc4n3CCC4)cc12 [Compound 345, 6-(2-(2,4,5-trifluorophenyl)-6,7-dihydro-5H-pyrrolo[1,2-a]imidazol-3-yl)quinazolin-4-amine]	–	–
< 50	50 to 100	c1ccc(C2=C(c3ccc4cn[nH]c4c3)C3CCCC3=N2)nc1 (stereo not shown) [Compound 366, 6-(2-(pyridin-2-yl)-3a,4,5,6-tetrahydrocyclopenta[b]pyrrol-3-yl)-1H-indazole]	–	–
< 50	< 50	Fc1ccc(Cl)cc1-c1nc2n(c1-c1ccc3nccn3c1)CCC2 [Compound 83]	–	–
50 to 100	100 to 1000	Cc1cccc(-c2nc3n(c2-c2ccc4[nH]cnc4c2)CCC3)c1 [Compound 171, 5-(2-(m-tolyl)-6,7-dihydro-5H-pyrrolo[1,2-a]imidazol-3-yl)-1H-benzo[d]imidazole]	–	–
100 to 1000	> 1000	Fc1cccc(-c2nc3n(c2-c2ccc4nccn4c2)CCC3)c1 [Compound 7, 6-(2-(3-fluorophenyl)-6,7-dihydro-5H-pyrrolo[1,2-c]imidazol-3-yl)imidazo[1,2-c]pyridine]	–	–
100 to 1000	100 to 1000	Cc1cc(F)c(Cl)cc1-c1nc2n(c1-c1ccc3ncnn3c1)CCC2 [Compound 56, 6-(2-(5-chloro-4-fluoro-2-methylphenyl)-6,7-dihydro-5H-pyrrolo[1,2-a]imidazol-3-yl)-[1,2,4]triazolo[1,5-a]pyridine]	–	–
100 to 1000	100 to 1000	Fc1ccc(-c2nc3n(c2-c2ccc4ncsc4c2)CCC3)cc1F [Compound 207, 6-(2-(3,4-difluorophenyl)-6,7-dihydro-5H-pyrrolo[1,2-a]imidazol-3-yl)benzo[d]thiazole]	–	–
100 to 1000	100 to 1000	Fc1ccc(-c2nc3n(c2-c2cc4cnccc4s2)CCC3)cc1 [Compound 101, 2-(2-(4-fluorophenyl)-6,7-dihydro-5H-pyrrolo[1,2-a]imidazol-3-yl)thieno[3,2-c]pyridine]	–	–
100 to 1000	> 1000	Cc1c(F)ccc(-c2nc3n(c2-c2ccc4ncnn4c2)CCC3)c1Cl [Compound 66, 6-(2-(2-chloro-4-fluoro-3-methylphenyl)-6,7-dihydro-5H-pyrrolo[1,2-a]imidazol-3-yl)-[1,2,4]triazolo[1,5-a]pyridine]	–	–
50 to 100	100 to 1000	Cc1cc(-c2nc3n(c2-c2ccc4nccnc4c2)CCC3)ccc1F [Compound 179, 6-(2-(4-fluoro-3-methylphenyl)-6,7-dihydro-5H-pyrrolo[1,2-a]imidazol-3-yl)quinoxaline]	–	–
